The values that follow come from patent publication US4725676A, “5-(3,5-disubstituted phenylazo)-2-hydroxybenzene-acetic acids and salts and lactones thereof having a potentially inhibitory effect on 15-hydroxy-prostaglandin dehydrogenase” (Pharmacia AB, priority 1984, dated 1988).

Format in all cases: biochemical
One assay has as its target T1, human PGDH (Homo sapiens, UniProt P15428).
T1 construct: human PGDH isolated from placenta; from tissue; host or cells: human placenta
T1 sequence (P15428 1-266): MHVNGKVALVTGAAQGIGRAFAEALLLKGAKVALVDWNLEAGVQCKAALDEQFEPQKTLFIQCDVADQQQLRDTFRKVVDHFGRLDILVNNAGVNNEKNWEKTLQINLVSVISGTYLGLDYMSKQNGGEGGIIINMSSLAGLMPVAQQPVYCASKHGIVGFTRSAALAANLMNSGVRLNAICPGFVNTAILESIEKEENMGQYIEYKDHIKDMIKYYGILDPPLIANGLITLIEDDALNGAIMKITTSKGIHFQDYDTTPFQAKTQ
Kind of assay: Inhibitory effect on human PGDH isolated from placenta. The following applies: radioactively labelled prostaglandin PGF 2, read-out: 50% PGDH inhibition at a concentration of. How it is done: The compound of Example 2 was studied in respect of its inhibitory effect on human PGDH isolated from placenta.
(§1) Radioactively labelled prostaglandin PGF 2 was incubated with the enzyme as according to Berry, C. N. et al., Biochem. Pharmacol. 1983, Vol. 32, p. 2863.
(§2) The compound of Example 2 was added in various concentrations, and the inhibition was measured as stated above.

For the next assay, the target named is T2, PGDH from rat colon (Rattus norvegicus, UniProt O08699).
T2 construct: PGDH from rat colon; from tissue; host or cells: rat colon
T2 sequence (O08699 1-266): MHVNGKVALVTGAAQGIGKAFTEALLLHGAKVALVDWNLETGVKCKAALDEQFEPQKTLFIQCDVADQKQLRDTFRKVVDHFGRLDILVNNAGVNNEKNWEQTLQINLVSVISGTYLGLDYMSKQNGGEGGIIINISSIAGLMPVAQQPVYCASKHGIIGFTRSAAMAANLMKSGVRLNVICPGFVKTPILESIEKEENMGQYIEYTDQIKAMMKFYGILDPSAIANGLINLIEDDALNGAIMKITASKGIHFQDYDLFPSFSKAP
The assay is described as follows: Inhibition of PGDH from rat colon. The following applies: similarly tested, read-out: 50% PGDH inhibition at. How it is done:
as §1, §2
When similarly tested against PGDH from rat colon the compound gave 50% PGDH inhibition at 56 nM. […] It should be noted that (V) is the strongest inhibitor of this type known in the literature.

A further assay concerns cyclooxygenase. The assay is described as follows: Inhibition of cyclooxygenase. The settings on record: at concentrations of from 10 to 1,000 nM.

Turning to `CCOC(=O)c1ccc(N=Nc2ccc(O)c(CC(=O)O)c2)cc1` [V, reference compound], on human PGDH, the IC50 is 290 nM.

As for `COC(=O)c1cc(N=Nc2ccc(O)c(CC(=O)O)c2)cc(C(=O)OC)c1` [Example 2, 5-(3,5-bis-(methoxycarbonyl)-phenylazo)-2-hydroxy-phenylacetic acid], the results for the IC50 on human PGDH and on PGDH from rat colon were 28 nM and 56 nM, respectively. The “inhibition of cyclooxygenase detected” value in the assay on cyclooxygenase is reported as “No inhibition whatever”.
